{"source": "patent US9855205B2", "about": "“Use of zinc coceth sulfate as an antibacterial agent against propionibacterium acnes” (PIERRE FABRE DERMO-COSMETIQUE, priority 2012, dated 2018)", "key": {"[1]": {"assay": "pH of zinc coceth sulfate", "format": "physicochemical"}, "[2]": {"assay": "Irritant and sensitising potential"}, "[3]": {"system": "chorio-allantoic membrane of an embryonated chicken egg", "assay": "Het Cam test (tolerance on the mucosa)", "conditions": "1% solution, irritant effects within five minutes, tenth day of incubation", "protocol": "Zinc coceth was tested in a 1% solution."}, "[4]": {"system": "Propionibacterium acnes ATCC6919", "assay": "Evaluation of the bactericidal activity against P. acnes (log reduction over contact time)", "format": "cell-based", "conditions": "Zetesol Zn at 20% (5% active zinc coceth sulfate)", "protocol": "The reduction over time of the log 10 of the number of germs in relation to initial number of germs (log R parameter) is evaluated.\nThe strain tested is Propionibacterium acnes ATCC6919.\nZetesol Zn® was tested at the concentration of 20% (i.e. 5% of active ingredient zinc coceth sulfate).\nMethod • placing into contact of the product to be tested with suspensions of P. acnes titrated at about 10^6 CFU/ml for 1, 5, 10 and 15 minutes. • Viable count after each duration of contact by inclusion of 1 ml of the sample in a culture agar (Columbia) • Incubation 72 hours at 36° C. in anaerobic conditions • Viable count of residual bacteria via direct counting.\nCalculation of the fall in log 10:\nThe calculation of the fall in log 10 of the number of CFU/ml is carried out according to the formula hereinbelow: Logarithmic reduction=LOG 10(number of CFU present at TO/number of CFU remaining at Tx)\nThe results indicated in table 1 are the average of two independent tests (except for the duration of 10 min where only 1 test was carried out). Also see FIG. 1. […]"}}}
{"substance": "Zinc coceth sulfate [Zetesol ® Zn]", "values": [{"measurement": "pH", "setting": "[1]", "value": 4.5}, {"measurement": "irritant and sensitising potential", "setting": "[2]", "value": "devoid of any irritant and sensitising potential"}, {"measurement": "tolerance on the mucosa", "setting": "[3]", "value": "good tolerance on the mucosa"}, {"measurement": "Log Reduction in 1 minute", "setting": "[4]; contact 1 min, average of two tests", "value": 0.63, "unit": "log"}, {"measurement": "Log Reduction in 5 minutes", "setting": "[4]; contact 5 min, average of two tests", "value": 2.06, "unit": "log"}, {"measurement": "Log Reduction in 10 minutes", "setting": "[4]; contact 10 min, only 1 test", "value": 3.65, "unit": "log"}, {"measurement": "Log Reduction in 15 minutes", "setting": "[4]; contact 15 min, average of two tests", "value": ">5.04", "unit": "log"}]}
